Results reported in BindingDB's records for patent US20240293587 (Technische University Munchen, 2024).
Starred links: 1 amine or outer side, 2 acyl side, 3 side chain; linkers in the order of their positions; H or OH if unused. Non-standard residues stand in square brackets, D forms with d. Residues, ends and D or L forms follow the SMILES beside them. Groups on a side chain read outwards from the residue. *: point of attachment. dAla(N-(6-guanidinohexyl)) = C[C@@H](NCCCCCCNC(=N)N)C(=O)O; X1 = C[C@H](C(=O)[*:2])N(CCCCCCNC(=N)NCCCCCCN[*:3])[*:1]; Propanoyl(3-PO3H2) = O=C(CCP(=O)(O)O)*; 2Nal = N[C@@H](Cc1ccc2ccccc2c1)C(=O)O; AEEA = NCCOCCOCC(=O)O; Ahx = NCCCCCC(=O)O

These molecules were tested against C-X-C chemokine receptor type 4 (Mus musculus, UniProt P70658) (assay: Competition Binding Assay).
Chain of C-X-C chemokine receptor type 4 (Mus musculus, UniProt P70658) (P70658 whole entry): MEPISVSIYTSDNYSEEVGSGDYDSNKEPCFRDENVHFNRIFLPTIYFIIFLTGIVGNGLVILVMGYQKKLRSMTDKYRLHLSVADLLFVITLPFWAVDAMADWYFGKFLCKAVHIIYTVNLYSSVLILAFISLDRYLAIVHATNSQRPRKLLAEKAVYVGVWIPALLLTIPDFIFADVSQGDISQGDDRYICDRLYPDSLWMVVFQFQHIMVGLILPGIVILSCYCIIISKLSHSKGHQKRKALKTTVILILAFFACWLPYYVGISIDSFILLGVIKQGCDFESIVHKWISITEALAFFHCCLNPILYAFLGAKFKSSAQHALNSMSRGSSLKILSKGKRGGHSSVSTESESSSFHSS
Description: (§1) For IC50 determination using Jurkat or Eμ-Myc1080 cells, samples containing 2×10^5 cells (or 4×10^5 cells; exact cell number used in the respective evaluations is given in the results section) in Hank's balanced salt solution (HBSS)/1% Bovine Serum Albumin (BSA) were incubated with 100.000 cpm of the respective radioligand (approx. 0.1 nM) in the presence of increasing concentrations (10−11 to 10−5 M) of the respective peptide of interest (n=3 per concentration). The total sample volume was 250 μL. After incubation at room temperature (RT) for 120 min with gentle agitation (200 mot/min), the tubes were centrifuged (5 min, 450g, Megafuge 1.0, Heraeus Thermo Scientific) and the supernatant was carefully removed. After washing twice with 400 μL of cold HBSS, the amount of cell-bound radioligand was quantified using a […]-counter.[0403]In the case of the adherent C6 glioma cells, cells were harvested using Trypsin/EDTA (0.05 % and 0.02%) in PBS one day prior to the experiment, centrifuged and resuspended with culture medium to a concentration of app. 150.000 cells/mL. The suspension was transferred into PLL-coated twenty-four-well plates (1 mL/well, Greiner, Solingen. Germany) and placed in the incubator overnight. On the day of the experiment, the culture medium was removed and the cells were washed with 250 μL of HBSS before being left to equilibrate in 200 μL of HBSS (1% BSA) at 37° C. for a minimum of 15 min before the experiment. Then, cells were incubated with 100.000 cpm of the respective radioligand (approx. 0.1 nM) in the presence of increasing concentrations (10−11 to 10−5 M) of the respective compound of interest (n=3 per concentration). The total sample volume was 250 μL. After incubation at room temperature (RT) for 120 min, the supernatant was removed and cells were washed twice with 200 μL of cold HBSS. Then, cells were lysed using 250 μL of 1 N NaOH, the lysate was transferred to vials and combined with 250 μL of HBSS used for rinsing the wells. Quantification of the amount of free and bound activity was performed in a […]-counter.

`C#CCCCCNC(=N)NCCCCCCN1C(=O)[C@@H](Cc2ccc(O)cc2)NC(=O)CNC(=O)[C@H](Cc2ccc3ccccc3c2)NC(=O)[C@H](CCCNC(=N)N)NC(=O)[C@H]1C` [US20240293587, Compound P6] and `C#CCCC(=O)NC(=N)NCCCCCCN1C(=O)[C@@H](Cc2ccc(O)cc2)NC(=O)CNC(=O)[C@H](Cc2ccc3ccccc3c2)NC(=O)[C@H](CCCNC(=N)N)NC(=O)[C@H]1C` [US20240293587, Compound P10] are within 1.5-fold of each other in IC50: 6.2 nM for the first, 5.5 nM for the second.

With `CC(=O)NC(=N)NCCCCCCN1C(=O)[C@@H](Cc2ccc(O)cc2)NC(=O)CNC(=O)[C@H](Cc2ccc3ccccc3c2)NC(=O)[C@H](CCCNC(=N)N)NC(=O)[C@H]1C` [US20240293587, Compound P7] the IC50 was 1.6 nM.

What follows are molecules tested against C-X-C chemokine receptor type 4 (Homo sapiens, UniProt P61073) (assay: Competition Binding Assay).
Chain of C-X-C chemokine receptor type 4 (Homo sapiens, UniProt P61073) (P61073 whole entry): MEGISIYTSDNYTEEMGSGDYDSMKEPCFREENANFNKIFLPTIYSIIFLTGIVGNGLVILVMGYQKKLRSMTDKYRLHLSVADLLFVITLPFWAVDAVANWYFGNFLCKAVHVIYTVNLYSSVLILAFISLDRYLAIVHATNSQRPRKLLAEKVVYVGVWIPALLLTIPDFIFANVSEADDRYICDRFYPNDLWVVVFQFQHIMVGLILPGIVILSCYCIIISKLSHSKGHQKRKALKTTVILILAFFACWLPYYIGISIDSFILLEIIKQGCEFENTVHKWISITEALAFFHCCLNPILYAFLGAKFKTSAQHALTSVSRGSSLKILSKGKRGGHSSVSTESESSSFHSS
Description: as §1

Compared with `CC(=O)NCCNC(=N)NCCCCCCN1C(=O)[C@@H](Cc2ccc(O)cc2)NC(=O)CNC(=O)[C@H](Cc2ccc3ccccc3c2)NC(=O)[C@H](CCCNC(=N)N)NC(=O)[C@H]1C` [US20240293587, Compound P1], `CC(=O)NCCCNC(=N)NCCCCCCN1C(=O)[C@@H](Cc2ccc(O)cc2)NC(=O)CNC(=O)[C@H](Cc2ccc3ccccc3c2)NC(=O)[C@H](CCCNC(=N)N)NC(=O)[C@H]1C` [US20240293587, Compound P2] is 1.8-fold lower in IC50: 3.1 nM for the first, 1.7 nM for the second. The second is the more potent here.

Compared with `CC(=O)NCCCCCNC(=N)NCCCCCCN1C(=O)[C@@H](Cc2ccc(O)cc2)NC(=O)CNC(=O)[C@H](Cc2ccc3ccccc3c2)NC(=O)[C@H](CCCNC(=N)N)NC(=O)[C@H]1C` [US20240293587, Compound P4], `CC(=O)NCCCCCCNC(=N)NCCCCCCN1C(=O)[C@@H](Cc2ccc(O)cc2)NC(=O)CNC(=O)[C@H](Cc2ccc3ccccc3c2)NC(=O)[C@H](CCCNC(=N)N)NC(=O)[C@H]1C` [US20240293587, Compound P5] is 3.3-fold lower in IC50: 32.1 nM for the first, 9.8 nM for the second. The second is the more potent here.

Compared with `C[C@@H]1C(=O)N[C@@H](CCCNC(=N)N)C(=O)N[C@@H](Cc2ccc3ccccc3c2)C(=O)NCC(=O)N[C@H](Cc2ccc(O)cc2)C(=O)N1CCCCCCNC(=N)NCCCCCCNC(=O)CCCCCNC(=O)CCCCCNC(=O)CCP(=O)(O)O` [US20240293587, Compound P5k] (cyclo([2Nal]G[dY][X1]([Ahx-Ahx-Propanoyl(3-PO3H2)])R)), `C[C@@H]1C(=O)N[C@@H](CCCNC(=N)N)C(=O)N[C@@H](Cc2ccc3ccccc3c2)C(=O)NCC(=O)N[C@H](Cc2ccc(O)cc2)C(=O)N1CCCCCCNC(=N)NCCCCCCNC(=O)COCCOCCNC(=O)COCCOCCNC(=O)CCP(=O)(O)O` [US20240293587, Compound P5m] (cyclo([2Nal]G[dY][X1]([AEEA-AEEA-Propanoyl(3-PO3H2)])R)) is 1.7-fold lower in IC50: 90 nM for the first, 52 nM for the second.

First: C#CCCCCNC(=N)NCCCCCCN1C(=O)[C@@H](Cc2ccc(O)cc2)NC(=O)CNC(=O)[C@H](Cc2ccc3ccccc3c2)NC(=O)[C@H](CCCNC(=N)N)NC(=O)[C@H]1C [US20240293587, Compound P6]
Second: C#CCCC(=O)NC(=N)NCCCCCCN1C(=O)[C@@H](Cc2ccc(O)cc2)NC(=O)CNC(=O)[C@H](Cc2ccc3ccccc3c2)NC(=O)[C@H](CCCNC(=N)N)NC(=O)[C@H]1C [US20240293587, Compound P10]
The IC50 of the first is 1.6-fold higher: 3.2 nM for the first, 2 nM for the second. The second is the more potent here.

Going from `CC(=O)NC(=N)NCCCCCCN1C(=O)[C@@H](Cc2ccc(O)cc2)NC(=O)CNC(=O)[C@H](Cc2ccc3ccccc3c2)NC(=O)[C@H](CCCNC(=N)N)NC(=O)[C@H]1C` [US20240293587, Compound P7] to `CC(=O)NCC(=O)NC(=N)NCCCCCCN1C(=O)[C@@H](Cc2ccc(O)cc2)NC(=O)CNC(=O)[C@H](Cc2ccc3ccccc3c2)NC(=O)[C@H](CCCNC(=N)N)NC(=O)[C@H]1C` [US20240293587, Compound P8], the IC50 rises from 2.5 nM to 13.2 nM (5.3-fold). The first is the more potent here.

Going from `CC(=O)NCCCCCC(=O)NC(=N)NCCCCCCN1C(=O)[C@@H](Cc2ccc(O)cc2)NC(=O)CNC(=O)[C@H](Cc2ccc3ccccc3c2)NC(=O)[C@H](CCCNC(=N)N)NC(=O)[C@H]1C` [US20240293587, Compound P9] to `C[C@@H]1C(=O)N[C@@H](CCCNC(=N)N)C(=O)N[C@@H](Cc2ccc3ccccc3c2)C(=O)NCC(=O)N[C@H](Cc2ccc(O)cc2)C(=O)N1CCCCCCNC(=N)N` [US20240293587, Compound R] (cyclo([dY][dAla(N-(6-guanidinohexyl))]R[2Nal]G)), the IC50 falls from 78.7 nM to 0.8 nM (98-fold). The second is the more potent here.

`CC(=O)N[C@@H](CCCCNC(=O)CSC[C@H]1NC(=O)[C@H](Cc2ccc3ccccc3c2)NC(=O)[C@H](CCCNC(=N)N)NC(=O)[C@@H](C)N(CCCCCCNC(=N)N)C(=O)[C@@H](Cc2ccc(O)cc2)NC1=O)C(N)=O` [US20240293587, Compound Pc1] and `CC(=O)NCCCCCCNC(=O)CSC[C@H]1NC(=O)[C@H](Cc2ccc3ccccc3c2)NC(=O)[C@H](CCCNC(=N)N)NC(=O)[C@@H](C)N(CCCCCCNC(=N)N)C(=O)[C@@H](Cc2ccc(O)cc2)NC1=O` [US20240293587, Compound Pc2] are within 1.5-fold of each other in IC50: 61 nM for the first, 57 nM for the second.

First: CC(=O)NCCCCCCSC[C@H]1NC(=O)[C@H](Cc2ccc3ccccc3c2)NC(=O)[C@H](CCCNC(=N)N)NC(=O)[C@@H](C)N(CCCCCCNC(=N)N)C(=O)[C@@H](Cc2ccc(O)cc2)NC1=O [US20240293587, Compound Pc3]
Second: CC(=O)NCc1ccc(CNC(=O)CSC[C@H]2NC(=O)[C@H](Cc3ccc4ccccc4c3)NC(=O)[C@H](CCCNC(=N)N)NC(=O)[C@@H](C)N(CCCCCCNC(=N)N)C(=O)[C@@H](Cc3ccc(O)cc3)NC2=O)cc1 [US20240293587, Compound Pc4]
The IC50 of the first is higher: over 400 nM for the first, 53 nM for the second.

Going from `CC(=O)NCc1cccc(CNC(=O)CSC[C@H]2NC(=O)[C@H](Cc3ccc4ccccc4c3)NC(=O)[C@H](CCCNC(=N)N)NC(=O)[C@@H](C)N(CCCCCCNC(=N)N)C(=O)[C@@H](Cc3ccc(O)cc3)NC2=O)c1` [US20240293587, Compound Pc5] to `C[C@@H]1C(=O)N[C@@H](CCCNC(=N)N)C(=O)N[C@@H](Cc2ccc3ccccc3c2)C(=O)N[C@H](CSCC(=O)NCc2cccc(CNC(=O)CN3CCN(CC(=O)O)CCN(CC(=O)O)CCN(CC(=O)O)CC3)c2)C(=O)N[C@H](Cc2ccc(O)cc2)C(=O)N1CCCCCCNC(=N)N` [US20240293587, Compound Pc5a], the IC50 rises from 14 nM to 78 nM (5.6-fold).
